Assays:
Type in all cases: in vivo
[1] = test system: Wheat; experiment: Post-emergence herbicidal activity (Example 32); set-up: key: 0-3 scale: 0 = 0-25% damage, 3 = 75-99% kill, 3+ = 100% kill; details: 3 weeks after spraying
Method: (§1) Concentrated formulations of the compounds of the invention were prepared by: • a) in the case of oils and waxy solids, dissolving the compound in toluene containing 7% v/v "Teric" N13 ("Teric" is a Trade MarK and "Teric" N13, a product of ethoxylation of nonylphenol, is available from ICI Australia Limited) and 3% v/v "Kemmat" SC15B ("Kemmat" is a Trade Mark and "Kemmat" SC15B is a formulation of calcium dodecylbenzene sulfonate); or • b) in the case of crystalline solids, adding 5 parts by weight of the compound and 1 part by weight of . ''Dyapol" PT ("Dyapol" is a Trade Mark and "Dyapol" PT is an anionic suspending agent) to 94 parts by weight of an aqueous solution containing 0.25% v/v of "Teric" N8 (a product of ethoxylation of nonylphenol) and ball-milling the mixture to produce a stable suspension. The emulsifiable concentrates and suspensions were then diluted with water to give an aqueous composition of the required concentration suitable for use in the evaluation of the pre-emergence and post-emergence herbicidal activity of the compounds of the invention.
(§2) The post-emergent herbicidal activity of the compounds of the invention formulated as described in Example 30 was assessed by the following procedure.
(§3) The seeds of the test species were sown in rows 2 cm deep in soil contained in seed boxes. The monocotyledonous plants and the dicotyledonous plants were sown in separate seed boxes in duplicate. The four seed boxes were placed in a glasshouse, lightly watered with an overhead spray to initiate germination and then sub-irrigated as required for optimum plant growth. After the plants had grown to a height of about 10 to 12.5 cm one box of each of the monocotyledonous plants and the dicotyledonous plants was removed from the glasshouse and sprayed with the required quantity of a composition of the invention. After spraying the boxes were returned to the glasshouse for further 3 weeks and the effects of the treatment was visually assessed by comparison with the untreated controls. The results are presented in Table 4 where the damage to plants is rated on a scale of from 0 to 3 where 0 represents 0 to 25% damage, 3 represents 75 to 99% kill and 3+ represents 100% kill. A dash (-) means that no experiment was carried out.

[2] = test system: Wild Oats; experiment: Post-emergence herbicidal activity (Example 32); details: 3 weeks after spraying
Method: as §1, §2, §3

[3] = test system: Ryegrass; experiment: Post-emergence herbicidal activity (Example 32); details: 3 weeks after spraying
Method: as §1, §2, §3

[4] = test system: Mustard; experiment: Post-emergence herbicidal activity (Example 32); details: 3 weeks after spraying
Method: as §1, §2, §3

[5] = test system: Japanese millet; experiment: Post-emergence herbicidal activity (Example 32); details: 3 weeks after spraying
Method: as §1, §2, §3

[6] = test system: Ryegrass; experiment: Pre-emergence herbicidal activity (Example 31); set-up: key: 0-3 scale: 0 = 0-25% damage, 3 = 75-99% kill, 3+ = 100% kill; details: after three weeks
Method: as §1
(§4) The pre-emergent herbicidal activity of the compounds of the invention formulated as described in Example 30 was assessed by the following procedure.
(§5) The seeds of the test species were sown in rows 2 cm deep in soil contained in seed boxes. The monocotyledonous plants and the dicotyledonous plants were sprayed with the required quantity of a composition of the invention. Two duplicate seed Doxes were prepared in the same manner but were not sprayed with a composition of the invention and were used for comparison purposes. All the boxes were placed in a glasshouse, lightly watered with an overhead spray to initiate germination and then sub-irrigated as required for optimum plant growth. After three weeks the boxes were removed from the glasshouse and the effect of the treatment was visually assessed. The results are presented in Table 3 where the damage to plants is rated on a scale of from 0 to 3 where 0 represents from 0 to 25% damage, 3 represents 75 to 99% kill and 3+ represents 100% kill.
(§6) A dash (-) means that no experiment was carried out.

[7] = test system: Wheat; experiment: Pre-emergence herbicidal activity (Example 31); set-up: key: 0-3 scale: 0 = 0-25% damage, 3 = 75-99% kill, 3+ = 100% kill; details: after three weeks
Method: as §1, §4, §5, §6

[8] = test system: Wild Oats; experiment: Pre-emergence herbicidal activity (Example 31); details: after three weeks
Method: as §1, §4, §5, §6

[9] = test system: Ipomea; experiment: Pre-emergence herbicidal activity (Example 31); details: after three weeks
Method: as §1, §4, §5, §6

[10] = test system: Sunflower; experiment: Pre-emergence herbicidal activity (Example 31); details: after three weeks
Method: as §1, §4, §5, §6

[11] = test system: Mustard; experiment: Pre-emergence herbicidal activity (Example 31); details: after three weeks
Method: as §1, §4, §5, §6

[12] = test system: Japanese millet; experiment: Pre-emergence herbicidal activity (Example 31); details: after three weeks
Method: as §1, §4, §5, §6

[13] = test system: Ipomea; experiment: Post-emergence herbicidal activity (Example 32); details: 3 weeks after spraying
Method: as §1, §2, §3

[14] = test system: Sunflower; experiment: Post-emergence herbicidal activity (Example 32); details: 3 weeks after spraying
Method: as §1, §2, §3

| SMILES | damage to plants, Wh ([1]; 1 kg/ha) | damage to plants, Wh ([1]; 5 kg/ha) | damage to plants, Ot ([2]; 1 kg/ha) | damage to plants, Ot ([2]; 5 kg/ha) | damage to plants, Rg ([3]; 1 kg/ha) | damage to plants, Rg ([3]; 5 kg/ha) | damage to plants, Ms ([4]; 1 kg/ha) | damage to plants, Ms ([4]; 5 kg/ha) | damage to plants, Jm ([5]; 1 kg/ha) | damage to plants, Jm ([5]; 5 kg/ha) | damage to plants, Rg ([6]; 5 kg/ha) | damage to plants, Wh ([7]; 5 kg/ha) | damage to plants, Ot ([8]; 5 kg/ha) | damage to plants, Ip ([9]; 5 kg/ha) | damage to plants, Sf ([10]; 5 kg/ha) | damage to plants, Ms ([11]; 5 kg/ha) | damage to plants, Jm ([12]; 5 kg/ha) | damage to plants, Ip ([13]; 1 kg/ha) | damage to plants, Sf ([14]; 1 kg/ha) | damage to plants, Rg ([6]; 1 kg/ha) | also measured |
| --- | --- | --- | --- | --- | --- | --- | --- | --- | --- | --- | --- | --- | --- | --- | --- | --- | --- | --- | --- | --- | --- |
| COC(=O)C(C)Oc1ccc(Nc2ccc(Cl)cc2Cl)cc1 (centres unmarked) [Compound 22] | 1 | 3 (3 represents 75 to 99% kill) | 2 | 3+ (3+ represents 100% kill) | 3+ (3+ represents 100% kill) | 3+ (3+ represents 100% kill) | 1 | 3+ (3+ represents 100% kill) | 3+ (3+ represents 100% kill) | 3+ (3+ represents 100% kill) | 2 | 0 (0 represents from 0 to 25% damage) | 0 (0 represents from 0 to 25% damage) | 0 (0 represents from 0 to 25% damage) | 0 (0 represents from 0 to 25% damage) | 0 (0 represents from 0 to 25% damage) | 2 |  |  |  |  |
| COC(=O)C(C)Oc1ccc(Nc2ccc(Br)cc2N)cc1 (centres unmarked) [Compound 32, Methyl 2-[4-(2-amino-4-bromoanilino)phenoxy] propionate] |  |  |  |  |  |  |  |  |  |  | 2 | 1 | 0 (0 represents from 0 to 25% damage) | 0 (0 represents from 0 to 25% damage) | 0 (0 represents from 0 to 25% damage) | 0 (0 represents from 0 to 25% damage) | 3 (3 represents 75 to 99% kill) |  |  |  |  |
| CCCCSC(=O)C(C)Oc1ccc(Nc2ccc(C(F)(F)F)cc2[N+](=O)[O-])cc1 (centres unmarked) [Compound 62] | 3 (3 represents 75 to 99% kill) |  | 3 (3 represents 75 to 99% kill) |  | 3+ (3+ represents 100% kill) |  | 0 (0 represents 0 to 25% damage) |  | 3+ (3+ represents 100% kill) |  |  |  |  |  |  |  |  | 0 (0 represents 0 to 25% damage) | 0 (0 represents 0 to 25% damage) | 2 | damage to plants, Wh ([7]; 1 kg/ha): 0 (0 represents from 0 to 25% damage); damage to plants, Ot ([8]; 1 kg/ha): 1; damage to plants, Ip ([9]; 1 kg/ha): 0 (0 represents from 0 to 25% damage); damage to plants, Sf ([10]; 1 kg/ha): 0 (0 represents from 0 to 25% damage); damage to plants, Ms ([11]; 1 kg/ha): 0 (0 represents from 0 to 25% damage); damage to plants, Jm ([12]; 1 kg/ha): 2 |
| CC(Oc1ccc(Nc2ccc(Cl)cc2[N+](=O)[O-])cc1)C(=O)OC1CCCCC1 (centres unmarked) [Compound 79] | 2 | 3 (3 represents 75 to 99% kill) | 3 (3 represents 75 to 99% kill) | 3 (3 represents 75 to 99% kill) | 3+ (3+ represents 100% kill) | 3 (3 represents 75 to 99% kill) | 0 (0 represents 0 to 25% damage) | 0 (0 represents 0 to 25% damage) | 3+ (3+ represents 100% kill) | 3+ (3+ represents 100% kill) | 3 (3 represents 75 to 99% kill) | 0 (0 represents from 0 to 25% damage) |  | 0 (0 represents from 0 to 25% damage) | 0 (0 represents from 0 to 25% damage) | 0 (0 represents from 0 to 25% damage) | 3+ (3+ represents 100% kill) | 0 (0 represents 0 to 25% damage) | 0 (0 represents 0 to 25% damage) | 3 (3 represents 75 to 99% kill) | damage to plants, Ip ([13]; 5 kg/ha): 0 (0 represents 0 to 25% damage); damage to plants, Sf ([14]; 5 kg/ha): 0 (0 represents 0 to 25% damage); damage to plants, Wh ([7]; 1 kg/ha): 0 (0 represents from 0 to 25% damage); damage to plants, Ip ([9]; 1 kg/ha): 0 (0 represents from 0 to 25% damage); damage to plants, Sf ([10]; 1 kg/ha): 0 (0 represents from 0 to 25% damage); damage to plants, Ms ([11]; 1 kg/ha): 0 (0 represents from 0 to 25% damage); damage to plants, Jm ([12]; 1 kg/ha): 3 (3 represents 75 to 99% kill) |
| COC(=O)C(C)Oc1ccc(Nc2ccccc2[N+](=O)[O-])cc1 (centres unmarked) [Compound 25] |  |  |  |  |  |  |  |  |  |  |  |  |  |  |  |  |  |  |  |  | damage to plants, Wh ([1]; 10 kg/ha): 3 (3 represents 75 to 99% kill); damage to plants, Ot ([2]; 10 kg/ha): 3 (3 represents 75 to 99% kill); damage to plants, Rg ([3]; 10 kg/ha): 3+ (3+ represents 100% kill); damage to plants, Ip ([13]; 10 kg/ha): 0 (0 represents 0 to 25% damage); damage to plants, Sf ([14]; 10 kg/ha): 0 (0 represents 0 to 25% damage); damage to plants, Ms ([4]; 10 kg/ha): 0 (0 represents 0 to 25% damage); damage to plants, Jm ([5]; 10 kg/ha): 3+ (3+ represents 100% kill); damage to plants, Rg ([6]; 10 kg/ha): 3+ (3+ represents 100% kill); damage to plants, Wh ([7]; 10 kg/ha): 1; damage to plants, Ip ([9]; 10 kg/ha): 0 (0 represents from 0 to 25% damage); damage to plants, Sf ([10]; 10 kg/ha): 0 (0 represents from 0 to 25% damage); damage to plants, Ms ([11]; 10 kg/ha): 0 (0 represents from 0 to 25% damage); damage to plants, Jm ([12]; 10 kg/ha): 3 (3 represents 75 to 99% kill) |

From patent EP0013144A1, “Substituted diphenylamine derivatives, compositions and herbicidal uses thereof, and processes for their preparation” (ICI AUSTRALIA LIMITED, priority 1978, dated 1980)
